The values below come from patent US12187816B2, “Macrocyclic compounds and methods of use thereof” (Genentech, Inc., priority 2020, dated 2025).

Usually DC50 stands for the concentration at which degradation of the target reaches its halfway point. The low end stands for a more potent degrader, the high end for a less potent degrader.

Molecules are shown by their SMILES. Starred links: 1 amine or outer side, 2 acyl side, 3 side chain; linkers in the order of their positions; H or OH if unused. Positions of bridges follow the written chain, without caps; N, C: chain ends. Non-standard residues stand in square brackets, D forms with d. Residues, ends and D or L forms follow the SMILES beside them. Groups on a side chain read outwards from the residue. *: point of attachment. β3hPhg(4-(4-MeThiazol-5-yl)) = Cc1ncsc1-c1ccc([C@@H](CC(=O)[*:2])N[*:1])cc1; JQ1acid = Cc1sc2c(c1C)C(c1ccc(Cl)cc1)=N[C@@H](CC(=O)*)c1nnc(C)n1-2; dPhg(4-(4-Me-thiazol-5-yl)) = Cc1ncsc1-c1ccc([C@@H](N)C(=O)O)cc1; Phg(4-(4-Me-thiazol-5-yl)) = Cc1ncsc1-c1ccc([C@H](N)C(=O)O)cc1; X2 = COc1ccc2c(c1)C(c1ccc(Cl)cc1)=N[C@@H](CC(=O)*)c1nnc(C)n1-2; X12 = Cc1sc2c(c1C)C(c1ccc(Cl)cc1)=N[C@H](CC(=O)*)c1nnc(C)n1-2; X6 = Cc1ncsc1-c1ccc([C@H](CC(=O)[*:2])N[*:1])cc1; dBip = N[C@H](Cc1ccc(-c2ccccc2)cc1)C(=O)O; NHCH2CH2SCH2CO = O=C(CSCCN[*:1])[*:2]; Hyp = O=C(O)[C@@H]1C[C@@H](O)CN1; d(β3hK) = NCCCC[C@@H](N)CC(=O)O; d4Pal = N[C@H](Cc1ccncc1)C(=O)O; Tle = CC(C)(C)[C@H](N)C(=O)O; AEEEA = NCCOCCOCCOCC(=O)O; dDap = NC[C@@H](N)C(=O)O; Ahx = NCCCCCC(=O)O; AEA = NCCOCC(=O)O

This assay addresses T1, BRD4 (Homo sapiens, UniProt O60885).
T1 construct: Mean 488 intensity of BRD4 quantitated in nuclear region; endogenous in cells; host or cells: EoL-1 eosinophilic leukemia cells
The assay can be described thus: BRD4 degradation assay in EOL1 cells (immunofluorescence imaging). Format: cell-based. Conditions: EoL-1 eosinophilic leukemia cells, 4 hours treatment, nuclear BRD4 immunofluorescence. The method, then: BRD4 Degradation Assay in EOL1 Cells
EoL-1 eosinophilic leukemia cells were seeded on day 1 at a density of 45,000 cells per well in Corning PureCoat Amine Microplates, (Corning #354719) in 45 μL/well of assay media (RPMI, 10% FBS, containing L-glutamine). After cells attached to cell plate, compounds were serially diluted ⅓ in dimethylsulfoxide (DMSO) to create 20-point dilutions across a 384 well v-bottom polypropylene microplate (Greiner #781091). 2 μL of each sample from the serial dilution was transferred to 98 μL of assay media as an intermediate dilution. 5 μL of each well of the intermediate dilution was added to 45 μL of cell plate. Columns 1, 2, 23 and 24 were treated with only 0.2% final concentration of DMSO for data normalization as “neutral controls”. After compound treatment, cell plates were stored in a 37° C. incubator for 4 hours. After 4 hours cells were fixed in 3.7% w/v final concentration of paraformaldehyde by addition of 15 μL of 16% w/v paraformaldehyde (Electron Microscopy Sciences #15710-S) directly to the 50 μL media and compound in the cell plate. Cell plate was incubated at RT for 20 minutes. Well contents were aspirated and washed with 100 μL/well PBS 3 times. 50 ul/well of phosphate Buffered Saline (PBS) (pH 7.5) containing 0.5% w/v bovine serum albumen, 0.5% w/v Triton X-100 (Block/Permeabilization Buffer) was added to each well. Samples were incubated for 20 minutes. Well contents were aspirated and washed 3 times with 100 μL/well of PBS. PBS was aspirated from the well and 50 μL per well of EoL-1 Block Buffer (PBS containing 10% Normal Goat Serum (AbCam #ab7481)) was added to each well. Plates were incubated at room temperature for 30 minutes. Block buffer was decanted from the wells. Immunofluorescence staining of BRD4 was carried out by diluting mAB Anti-BRD4 [EPR5150] antibody (Abcam 128874) 1:500 into Antibody Dilution Buffer (PBS, 2% Normal Goat Serum). 25 μL per well of BRD4 antibody diluted in buffer was added and incubated overnight at 4° C.
On day-2 samples were washed 3 times with 100 μL/well of PBS. 25 μL/well of secondary antibody solution (Goat Anti-Rabbit IgG, DyLight 488 Conjugated Highly Cross-adsorbed Thermo Fisher #35553) and Hoechst 33342 1 μg/ml diluted in Antibody Dilution Buffer) were dispensed into each well. Hoechst 33342 only was added to bottom 3 columns for data normalization as “inhibitor controls”. Samples were incubated for 2 hours at room temperature. Samples were washed 3 times with 100 μL PBS. Quantitative fluorescence imaging of BRD4 was carried out using an Opera Phenix High-Content Screening System. Fluorescent images of the samples were captured using 488 nm and 405 nm channels. Hoechst channel was used to identify nuclear region. Mean 488 intensity of BRD4 quantitated in nuclear region. Data analysis was carried out using Genedata Screener, with DMSO and no primary antibody control treated samples being used to define the 0% and 100% changes in BRD4. The dose-response log(inhibitor) vs. response used to define the inflexion point of curve (DC50) and the plateau of the maximal effect.
The individual topological polar surface area (TPSA) and cLogP values were calculated using Chemdraw v. 15.1 (PerkinElmer). Half life of the ternary VHL/BD1 and VHL/BD2 complexes, DC50 of BRD4 in EOL1 cells, topological polar surface area of a molecule (TPSA) and c log P (lipophilicity) for compounds described herein are provided in Table 3.
Compound `Cc1ncsc1-c1ccc([C@@H]2NC(=O)[C@@H]3C[C@@H](O)CN3C(=O)[C@H](C(C)(C)C)NC(=O)CNC(=O)C[C@@H](CCCCNC(=O)C[C@@H]3N=C(c4ccc(Cl)cc4)c4c(sc(C)c4C)-n4c(C)nnc43)NC(=O)CNC2=O)cc1` [Compound 37] (cyclo(G[Tle][Hyp][Phg(4-(4-Me-thiazol-5-yl))]G[d(β3hK)](JQ1acid))) yielded a DC50 greater than 20000 nM. The figure for `Cc1ncsc1-c1ccc([C@H]2NC(=O)[C@@H]3C[C@@H](O)CN3C(=O)[C@H](C(C)(C)C)NC(=O)CCCCCNC(=O)[C@@H](CNC(=O)C[C@@H]3N=C(c4ccc(Cl)cc4)c4c(sc(C)c4C)-n4c(C)nnc43)NC(=O)CNC2=O)cc1` [Compound 38] (cyclo([Ahx][Tle][Hyp][dPhg(4-(4-Me-thiazol-5-yl))]G[dDap](JQ1acid))) is less than 1000 nM; for `Cc1ncsc1-c1ccc([C@@H]2NC(=O)[C@@H]3C[C@@H](O)CN3C(=O)[C@H](C(C)(C)C)NC(=O)CCCCCNC(=O)[C@@H](CNC(=O)C[C@@H]3N=C(c4ccc(Cl)cc4)c4c(sc(C)c4C)-n4c(C)nnc43)NC(=O)CNC2=O)cc1` [Compound 39] (cyclo([Ahx][Tle][Hyp][Phg(4-(4-Me-thiazol-5-yl))]G[dDap](JQ1acid))) it is less than 1000 nM. The result for `Cc1sc2c(c1C)C(c1ccc(Cl)cc1)=N[C@@H](CC(=O)NC[C@H]1NC(=O)CNC(=O)[C@@H](Cc3ccc(-c4ccccc4)cc3)NC(=O)[C@@H]3C[C@@H](O)CN3C(=O)[C@H](C(C)(C)C)NC(=O)COCCNC1=O)c1nnc(C)n1-2` [Compound 40] (cyclo([AEA][Tle][Hyp][dBip]G[dDap](JQ1acid))) reads less than 50 nM; that for `Cc1sc2c(c1C)C(c1ccc(Cl)cc1)=N[C@@H](CC(=O)NC[C@H]1NC(=O)[C@@H](C)NC(=O)[C@@H](Cc3ccc(-c4ccccc4)cc3)NC(=O)[C@@H]3C[C@@H](O)CN3C(=O)[C@H](C(C)(C)C)NC(=O)COCCNC1=O)c1nnc(C)n1-2` [Compound 41] (cyclo([AEA][Tle][Hyp][dBip][dA][dDap](JQ1acid))), less than 50 nM. The figure for `Cc1sc2c(c1C)C(c1ccc(Cl)cc1)=N[C@@H](CC(=O)NC[C@H]1NC(=O)[C@@H](C(C)C)NC(=O)[C@@H](Cc3ccc(-c4ccccc4)cc3)NC(=O)[C@@H]3C[C@@H](O)CN3C(=O)[C@H](C(C)(C)C)NC(=O)COCCNC1=O)c1nnc(C)n1-2` [Compound 42] (cyclo([AEA][Tle][Hyp][dBip][dV][dDap](JQ1acid))) is less than 50 nM. In turn, `Cc1sc2c(c1C)C(c1ccc(Cl)cc1)=N[C@@H](CC(=O)NC[C@H]1NC(=O)[C@@H](Cc3ccncc3)NC(=O)[C@@H](Cc3ccc(-c4ccccc4)cc3)NC(=O)[C@@H]3C[C@@H](O)CN3C(=O)[C@H](C(C)(C)C)NC(=O)COCCNC1=O)c1nnc(C)n1-2` [Compound 43] (cyclo([AEA][Tle][Hyp][dBip][d4Pal][dDap](JQ1acid))) had a 50% degradation concentration (DC50) of less than 50 nM. The figure for `Cc1sc2c(c1C)C(c1ccc(Cl)cc1)=N[C@@H](CC(=O)NC[C@H]1NC(=O)[C@@H](Cc3ccccc3)NC(=O)[C@@H](Cc3ccc(-c4ccccc4)cc3)NC(=O)[C@@H]3C[C@@H](O)CN3C(=O)[C@H](C(C)(C)C)NC(=O)COCCNC1=O)c1nnc(C)n1-2` [Compound 44] (cyclo([AEA][Tle][Hyp][dBip][dF][dDap](JQ1acid))) is less than 50 nM; for `Cc1sc2c(c1C)C(c1ccc(Cl)cc1)=N[C@@H](CC(=O)NC[C@H]1NC(=O)[C@@H](Cc3ccc(-c4ccccc4)cc3)NC(=O)[C@@H](Cc3ccc(-c4ccccc4)cc3)NC(=O)[C@@H]3C[C@@H](O)CN3C(=O)[C@H](C(C)(C)C)NC(=O)COCCNC1=O)c1nnc(C)n1-2` [Compound 45] (cyclo([AEA][Tle][Hyp][dBip][dBip][dDap](JQ1acid))) it is less than 1000 nM; for `Cc1ncsc1-c1ccc([C@H]2NC(=O)[C@@H]3C[C@@H](O)CN3C(=O)[C@H](C(C)(C)C)NC(=O)CSCCNC(=O)[C@@H](CNC(=O)C[C@@H]3N=C(c4ccc(Cl)cc4)c4c(sc(C)c4C)-n4c(C)nnc43)NC(=O)CNC2=O)cc1` [Compound 46] (cyclo(G[dDap](JQ1acid)[NHCH2CH2SCH2CO][Tle][Hyp][dPhg(4-(4-Me-thiazol-5-yl))])) it is less than 1000 nM. The result for `Cc1ncsc1-c1ccc([C@@H]2NC(=O)[C@@H]3C[C@@H](O)CN3C(=O)[C@H](C(C)(C)C)NC(=O)CSCCNC(=O)[C@@H](CNC(=O)C[C@@H]3N=C(c4ccc(Cl)cc4)c4c(sc(C)c4C)-n4c(C)nnc43)NC(=O)CNC2=O)cc1` [Compound 47] (cyclo(G[dDap](JQ1acid)[NHCH2CH2SCH2CO][Tle][Hyp][Phg(4-(4-Me-thiazol-5-yl))])) reads greater than 20000 nM; that for `Cc1sc2c(c1C)C(c1ccc(Cl)cc1)=N[C@@H](CC(=O)NC[C@H]1NC(=O)CNC(=O)[C@@H](Cc3ccc(-c4ccccc4)cc3)NC(=O)[C@@H]3C[C@@H](O)CN3C(=O)[C@H](C(C)(C)C)n3cc(nn3)COCCNC1=O)c1nnc(C)n1-2` [Compound 48], less than 50 nM. The figure for `Cc1ncsc1-c1ccc([C@H]2NC(=O)[C@@H]3C[C@@H](O)CN3C(=O)[C@H](C(C)(C)C)NC(=O)CSC[C@H](C(N)=O)NC(=O)[C@@H](CNC(=O)COCCOCCOCCNC(=O)C[C@@H]3N=C(c4ccc(Cl)cc4)c4c(sc(C)c4C)-n4c(C)nnc43)NC(=O)CNC2=O)cc1` [Compound 49] ({CH2CO}-[Tle][Hyp][dPhg(4-(4-Me-thiazol-5-yl))]G[dDap]([AEEEA-JQ1acid])[dC]-NH2; thioether N-6) is greater than 20000 nM; for `COc1ccc2c(c1)C(c1ccc(Cl)cc1)=N[C@@H](CC(=O)NC[C@H]1NC(=O)CNC(=O)[C@@H](c3ccc(-c4scnc4C)cc3)NC(=O)[C@@H]3C[C@@H](O)CN3C(=O)[C@H](C(C)(C)C)NC(=O)CSC[C@H](C(N)=O)NC1=O)c1nnc(C)n1-2` [Compound 50] ({CH2CO}-[Tle][Hyp][dPhg(4-(4-Me-thiazol-5-yl))]G[dDap](X2)[dC]-NH2; thioether N-6) it is less than 1000 nM; for `COc1ccc2c(c1)C(c1ccc(Cl)cc1)=N[C@@H](CC(=O)NC[C@H]1NC(=O)CNC(=O)[C@H](c3ccc(-c4scnc4C)cc3)NC(=O)[C@@H]3C[C@@H](O)CN3C(=O)[C@H](C(C)(C)C)NC(=O)CSC[C@H](C(N)=O)NC1=O)c1nnc(C)n1-2` [Compound 51] ({CH2CO}-[Tle][Hyp][Phg(4-(4-Me-thiazol-5-yl))]G[dDap](X2)[dC]-NH2; thioether N-6) it is greater than 20000 nM. Turning to `COc1ccc2c(c1)C(c1ccc(Cl)cc1)=N[C@@H](CC(=O)NC[C@H]1NC(=O)[C@@H](C(C)C)NC(=O)[C@@H](Cc3ccc(-c4ccccc4)cc3)NC(=O)[C@@H]3C[C@@H](O)CN3C(=O)[C@H](C(C)(C)C)NC(=O)COCCNC1=O)c1nnc(C)n1-2` [Compound 52] (cyclo([AEA][Tle][Hyp][dBip][dV][dDap](X2))), the half-maximal degradation concentration (DC50) is less than 50 nM. Turning to `Cc1ncsc1-c1ccc([C@H]2NC(=O)[C@@H]3C[C@@H](O)CN3C(=O)[C@H](C(C)(C)C)NC(=O)CSC[C@H](C(N)=O)NC(=O)[C@@H](CNC(=O)C[C@H]3N=C(c4ccc(Cl)cc4)c4c(sc(C)c4C)-n4c(C)nnc43)NC(=O)CNC2=O)cc1` [Compound 53] ({CH2CO}-[Tle][Hyp][dPhg(4-(4-Me-thiazol-5-yl))]G[dDap](X12)[dC]-NH2; thioether N-6), the half-maximal degradation concentration (DC50) was greater than 20000 nM. Turning to `Cc1ncsc1-c1ccc([C@@H]2CC(=O)NCC(=O)N[C@H](CNC(=O)C[C@@H]3N=C(c4ccc(Cl)cc4)c4c(sc(C)c4C)-n4c(C)nnc43)C(=O)NCCOCC(=O)N[C@@H](C(C)(C)C)C(=O)N3C[C@H](O)C[C@H]3C(=O)N2)cc1` [Compound 54] (cyclo([AEA][Tle][Hyp][X6]G[dDap](JQ1acid))), the DC50 was less than 50 nM.

With `Cc1ncsc1-c1ccc([C@H]2CC(=O)NCC(=O)N[C@H](CNC(=O)C[C@@H]3N=C(c4ccc(Cl)cc4)c4c(sc(C)c4C)-n4c(C)nnc43)C(=O)NCCOCC(=O)N[C@@H](C(C)(C)C)C(=O)N3C[C@H](O)C[C@H]3C(=O)N2)cc1` [Compound 55] (cyclo([AEA][Tle][Hyp][β3hPhg(4-(4-MeThiazol-5-yl))]G[dDap](JQ1acid))), the DC50 was less than 1000 nM.
